Laboratory results published in patent US20040110802A1, “Antibacterial benzoic acid derivatives” (priority 2002, published 2004).
≈ marks a conversion by molar mass, not a printed value.

Test system: SAUR 9218
Assay: MIC Test Method, standard agar dilution
Format: cell-based
Settings: agar dilution, Mueller Hinton agar, incubated overnight at 35° C.; lowest concentration that inhibits visible growth; read-out: SAUR 9218 MIC
Method in brief: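 MIC (μg/ml) was read as the lowest drug level without visible growth of SAUR 9218 after overnight incubation at 35 °C. Inocula of about 10^4 to 10^5 cells per spot were applied to Mueller Hinton agar containing 2-fold serial compound dilutions.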

Row | SMILES | MIC [µg/mL]
1 | CC1(C(=O)Nc2cccc3cc(C(=O)Nc4ccc(C#N)cc4C(=O)O)[nH]c23)CC1 | 2 (≈ 4.97 µM)
2 | CCC(C)C(=O)Nc1cccc2cc(C(=O)Nc3ccc(C#N)cc3C(=O)O)[nH]c12 (stereo not shown) | 1 (≈ 2.47 µM)
3 | COCC(C)NCC(O)COc1cccc2cc(C(=O)Nc3ccc(C#N)cc3C(=O)O)n(C)c12.Cl (stereo not shown) | 1
4 | COc1ccc(-c2cc(C(=O)Nc3ccc(C#N)cc3C(=O)O)no2)cc1 | 0.5 (≈ 1.38 µM)
5 | N#Cc1ccc(NC(=O)c2cc(-c3ccccc3O)on2)c(C(=O)O)c1 | 0.125 (≈ 0.358 µM)
6 | Cc1noc(C)c1-c1cc(C(=O)Nc2ccc(C#N)cc2C(=O)O)no1 | 1 (≈ 2.84 µM)
7 | CS(=O)(=O)c1ncc(N2CCOCC2)c(C(=O)Nc2ccc(Br)cc2C(=O)O)n1 | > 128
8 | Cl.Cn1c(C(=O)Nc2ccc(C#N)cc2C(=O)O)cc2cccc(OCC(O)CNCc3cccs3)c21 (stereo not shown) | 0.5
9 | N#Cc1ccc(NC(=O)c2cc3cccc(NC(=O)c4cc(-c5ccccc5)on4)c3[nH]2)c(C(=O)O)c1 | 1 (≈ 2.03 µM)
10 | COc1ccc(-c2cnc(C(=O)Nc3ccc(C#N)cc3C(=O)O)o2)cc1 | 1 (≈ 2.75 µM)
11 | Cn1c(C(=O)Nc2ccc(C#N)cc2C(=O)O)cc2ccccc21 | 0.25 (≈ 0.783 µM)
12 | CC(C)Cn1c(C(=O)Nc2ccc(Cl)cc2C(=O)O)cc2ccccc21 | 2 (≈ 5.39 µM)
13 | Cn1c(C(=O)Nc2ccc(C#N)cc2C(=O)O)cc2ccc(-c3ccccc3F)cc21 | 0.5 (≈ 1.21 µM)
14 | COC(Cc1cnc(C(=O)Nc2ccc(Br)cc2C(=O)O)cn1)[C@H]1COC2(CCCCC2)O1 (stereo partly shown) | 128 (≈ 246 µM)
15 | Cn1c(C(=O)Nc2ccc(C#N)cc2C(=O)O)cc2ccc(NC(=O)c3ccno3)cc21 | 0.5 (≈ 1.16 µM)
16 | O=C(Nc1ccc(Br)cc1C(=O)O)c1ccc(SC2CCCCC2)nc1 | 1 (≈ 2.3 µM)
17 | COc1ccccc1-c1cnc(C(=O)Nc2ccc(Br)cc2C(=O)O)o1 | 2 (≈ 4.79 µM)
18 | Cn1c(C(=O)Nc2ccc(C#N)cc2C(=O)O)cc2cccc(N(S(C)(=O)=O)S(C)(=O)=O)c21 | 0.125 (≈ 0.255 µM)
19 | Cl.Cn1c(C(=O)Nc2ccc(C#N)cc2C(=O)O)cc2cccc(OCC(O)CNCC(O)c3ccccc3)c21 (stereo not shown) | 1
20 | Cc1sc(C(=O)Nc2ccc(C#N)cc2C(=O)O)cc1S(=O)(=O)Nc1ccc2c(c1)CCC2 | 32 (≈ 66.5 µM)
21 | CC(C)Cn1c(C(=O)Nc2ccc(C#N)cc2C(=O)O)cc2ccccc21 | 4 (≈ 11.1 µM)
22 | COCCOc1cccc2cc(C(=O)Nc3ccc(C#N)cc3C(=O)O)n(C)c12 | 0.25 (≈ 0.635 µM)
23 | CCCCN(CCCC)CCCNS(=O)(=O)c1cc(C(=O)Nc2ccc(Br)cc2C(=O)O)cs1 | > 128
24 | N#Cc1ccc(NC(=O)c2ncc(-c3ccc4c(c3)OCO4)o2)c(C(=O)O)c1 | 2 (≈ 5.3 µM)
25 | N#Cc1ccc(NC(=O)c2noc3cc(Br)ccc23)c(C(=O)O)c1 | 0.5 (≈ 1.29 µM)

Row | SMILES | MIC [µg/mL]
26 | O=C(O)c1cc(Br)ccc1NC(=O)c1cc2ccccc2n1CC1CCCCC1 | 4 (≈ 8.78 µM)
27 | COCCOCCCSc1cnc(C(=O)Nc2ccc(Br)cc2C(=O)O)cn1 | 2 (≈ 4.25 µM)
28 | N#Cc1ccc(NC(=O)c2cc3cccc(NC(=O)c4ccno4)c3[nH]2)c(C(=O)O)c1 | 2 (≈ 4.82 µM)
29 | N#Cc1ccc(NC(=O)c2[nH]c3c(OCc4ccccc4)cccc3c2Br)c(C(=O)O)c1 | 0.5 (≈ 1.02 µM)
30 | N#Cc1ccc(NC(=O)c2cc3cccc(NC(=O)C(Cl)c4ccccc4)c3[nH]2)c(C(=O)O)c1 (stereo not shown) | 0.125 (≈ 0.264 µM)
31 | N#Cc1ccc(NC(=O)c2noc3ccc(-c4ccccc4)cc23)c(C(=O)O)c1 | 0.125 (≈ 0.326 µM)
32 | CC(=O)Nc1ccc(S(=O)(=O)N(c2ccc3cc(C(=O)Nc4ccc(C#N)cc4C(=O)O)n(C)c3c2)S(=O)(=O)c2ccc(NC(C)=O)cc2)cc1 | 1 (≈ 1.37 µM)
33 | COc1ccc(CCCC(=O)Nc2cccc3cc(C(=O)Nc4ccc(C#N)cc4C(=O)O)[nH]c23)cc1 | 1 (≈ 2.01 µM)
34 | CC(C)=CCOCC(O)COc1cccc2cc(C(=O)Nc3ccc(C#N)cc3C(=O)O)n(C)c12 (stereo not shown) | 0.5 (≈ 1.05 µM)
35 | N#Cc1ccc(NC(=O)c2cc3cccc(NC(=O)CCCCc4ccccc4)c3[nH]2)c(C(=O)O)c1 | 0.25 (≈ 0.52 µM)
36 | N#Cc1ccc(NC(=O)c2noc3cc(OCc4ccccc4)ccc23)c(C(=O)O)c1 | 0.25 (≈ 0.605 µM)
37 | N#Cc1ccc(NC(=O)c2ccc(-c3ccccc3C(F)(F)F)nn2)c(C(=O)O)c1 | 16 (≈ 38.8 µM)
38 | Cc1c(C(=O)Nc2ccc(Br)cc2C(=O)O)noc1-c1ccccc1 | 0.5 (≈ 1.25 µM)
39 | O=C(Nc1ccc(Br)cc1C(=O)O)c1ccc[nH]1 | > 128
40 | N#Cc1ccc(NC(=O)c2ccoc2)c(C(=O)O)c1 | > 128
41 | N#Cc1ccc(NC(=O)c2cc(-c3ccccc3OC3CCOCC3)on2)c(C(=O)O)c1 | 0.25 (≈ 0.577 µM)
42 | CCCCN(CCCC)CCCNS(=O)(=O)c1csc(C(=O)Nc2ccc(Br)cc2C(=O)O)c1C | > 128
43 | CC(=O)Oc1ccc2c(C(=O)Nc3ccc(C#N)cc3C(=O)O)noc2c1 | 1 (≈ 2.74 µM)
44 | COc1ccc(C(=O)Nc2ccc(Br)cc2C(=O)O)c(OC)n1 | > 128
45 | CS(=O)(=O)c1ccc(-c2cnc(C(=O)Nc3ccc(C#N)cc3C(=O)O)cn2)cc1 | > 128
46 | CC(=O)OCC(=O)Nc1ccc2cc(C(=O)Nc3ccc(C#N)cc3C(=O)O)n(C)c2c1 | 1 (≈ 2.3 µM)
47 | CCOc1ccccc1-c1cc(C(=O)Nc2ccc(C#N)cc2C(=O)O)no1 | 0.125 (≈ 0.331 µM)
48 | COc1cccc2[nH]c(C(=O)Nc3ccc(C#N)cc3C(=O)O)cc12 | 0.25 (≈ 0.746 µM)
49 | CSc1ncccc1C(=O)Nc1ccc(Br)cc1C(=O)O | > 128
